Results taken from patent US11866458B2, “Panaxadiol glycoside derivative and preparation method and application thereof” (SUZHOU JI ER BIOLOGICAL MEDICINE CO., LTD., priority 2018, dated 2024).

How the values were obtained:
[1] = after inhalation; cited from earlier work
[2] = system: COPD rats induced by smoke exposure; assay: COPD induced by smoke exposure in rats: lung function FEV0.2/FVC; format: in vivo, Wistar rats; conditions: for FEV2/FVC % (FEV0.2/FVC %, forced expiratory index within 200 ms): 180 days
ICR mice [3] = assay: Blood glucose of caudal vein after 6 days of intragastric administration; conditions: 225 mg/kg, intragastric, 6 days
Method: The mice were intragastric administration for 6 consecutive days, fasting was started at about 8:00 in the morning on the sixth day, and blood glucose in caudal vein was measured at about 4:00 in the next day.

ICR mice [4] = assay: Blood routine test after 6 days of intragastric administration; conditions: 225 mg/kg, intragastric, 6 days
Method: Mice were intragastric administration for 6 consecutive days, and sufficient blood samples were taken for blood routine test 1 hour after the last dose.

[5] = system: mouse asthma model induced by OVA; assay: Asthma induced by ovalbumin in Balb/c mice: IgE level in serum by ELISA; format: in vivo; conditions: oral
[6] = system: inflammatory cells in bronchoalveolar lavage fluid of mice; assay: Determination of inflammatory cells in bronchoalveolar lavage fluid of mice (OVA asthma model); format: in vivo, BALB/C mice; design: unit not given here; conditions: oral
Method: 144 6-week-old BALB/C mice (18-20 g) were divided into 24 groups: control group, placebo group, dexamethasone group (3 mg/kg) and the drug groups. There were 6 in each group. The control group was given normal saline without any treatment. The other groups were sensitized by intraperitoneal injection of OVA 20 μg and aluminum hydroxide 200 μL PBC (2 mg, prepared into emulsion). […] On day 21, 22 and 23, the therapeutic agent (i.e. 3 mg/kg dexamethasone in the positive control group and oral administration in the drug group) was given orally. From day 17 to 23, PBS was given to the control group and placebo group respectively, PBS (without OVA) was given to the control group. On day 0 and day 14, the normal saline was nebulized for 30 minutes to remove the aluminum hydroxide on day 21, 22 and 23 See in Table 2.

In the case of `CC(C)C(=O)OCC(=O)[C@@]12O[C@H](C3CCCCC3)O[C@@H]1C[C@H]1[C@@H]3CCC4=CC(=O)C=C[C@]4(C)[C@H]3[C@@H](O)C[C@@]12C` [ciclesonide], the bioavailability in vivo [1] is given as “less than 1%”.

In the case of `CC(C)=CCC[C@](C)(O[C@@H]1O[C@H](CO)[C@@H](O)[C@H](O)[C@H]1O)[C@H]1CC[C@]2(C)[C@@H]1[C@H](O)C[C@@H]1[C@@]3(C)CC[C@H](O)C(C)(C)[C@@H]3CC[C@]12C` [CK, ginsenoside compound K, reference compound], the “FEV2/FVC % (FEV0.2/FVC %, forced expiratory index within 200 ms)” value ([2]; 20 mg/kg oral) is reported as 61.29 ± 11.76%, the “FEV2/FVC % (FEV0.2/FVC %, forced expiratory index within 200 ms)” value ([2]; 40 mg/kg oral) is reported as 70.89 ± 10.56 % and the “FEV2/FVC % (FEV0.2/FVC %, forced expiratory index within 200 ms)” value ([2]; 80 mg/kg oral) is reported as 80.24 ± 13.73 %. For the same compound, the “effect in COPD rats compared with inhaled budesonide” value ([2]; high dose group, oral) was “superior to budesonide”, the “blood glucose related changes” value (ICR mice [3]) was “no blood glucose related changes” and the Blood glucose (ICR mice [3]; fasted, caudal vein) was 3.18 ± 0.28 mmol/L. It also gave a Ba % (ICR mice [4]) of 0.01 ± 0.02%, an Eo % (ICR mice [4]) of 0.75 ± 0.71% and a Ly % (ICR mice [4]) of 62.54 ± 30.29%. The Mo % (ICR mice [4]) was 6.01 ± 8.91%, the Ne % (ICR mice [4]) was 31.39 ± 2.72% and the “hematological related changes” value (ICR mice [4]) was “no hematological related changes”. For the same compound, the WBC (ICR mice [4]; 1 hour after last dose) was 4.96 ± 2.14 10^2/mm^3, the “Concentration of IgE in serum” value ([5]; Table 1-1 (1st time), 20 mg/kg, 24 hours after last OVA stimulation) was 1701.85 ± 284.66 ng/mL and the “Concentration of IgE in serum” value ([5]; Table 1-2 (2nd time), 15 mg/kg) was 1921.25 ± 160.12 ng/mL. The “Concentration of IgE in serum” value ([5]; Table 1-2 (2nd time), 30 mg/kg) was 1676.69 ± 159.13 ng/mL, the “Concentration of IgE in serum” value ([5]; Table 1-2 (2nd time), 60 mg/kg) was 1501.85 ± 110.68 ng/mL and the “Acidic cells in bronchoalveolar lavage fluid” value (“Acidic cells” for short) ([6]; 2 mg/kg) was 32.47 ± 20.33. The “Neutral cells in bronchoalveolar lavage fluid” value (“Neutral cells” for short) ([6]; 2 mg/kg) was 15.24 ± 7.94, the “lymphocyte in bronchoalveolar lavage fluid” value (from here on “lymphocyte”) ([6]; 2 mg/kg) was 16.81 ± 9.88 and the “Acidic cells” value ([6]; 20 mg/kg) was 16.39 ± 9.67. The “Neutral cells” value ([6]; 20 mg/kg) was 8.78 ± 5.33, the “Total inflammatory cells in bronchoalveolar lavage fluid” value ([6]; 20 mg/kg) was 24.87 ± 20.58 and the “lymphocyte” value ([6]; 20 mg/kg) was 10.15 ± 7.34. The “Acidic cells” value ([6]; 200 mg/kg) was 13.12 ± 7.38, the “Neutral cells” value ([6]; 200 mg/kg) was 4.32 ± 3.16 and the “Total inflammatory cells in bronchoalveolar lavage fluid” value ([6]; 200 mg/kg) was 22.38 ± 12.69. For the same compound, the “lymphocyte” value ([6]; 200 mg/kg) was 7.42 ± 4.53.
